The values that follow come from patent US20230087118A1, “IMIDAZO[1,2-a][sequence] DERIVATIVES AND THEIR USE IN THE TREATMENT OF DISEASE” (priority 2019, published 2023).

Molecules are shown by their SMILES. Structures can show the parent of a compound that is named as a salt.

The first experiment addresses T1, IRAK4 (Homo sapiens, UniProt Q9NWZ3).
T1 sequence (Q9NWZ3 1-460): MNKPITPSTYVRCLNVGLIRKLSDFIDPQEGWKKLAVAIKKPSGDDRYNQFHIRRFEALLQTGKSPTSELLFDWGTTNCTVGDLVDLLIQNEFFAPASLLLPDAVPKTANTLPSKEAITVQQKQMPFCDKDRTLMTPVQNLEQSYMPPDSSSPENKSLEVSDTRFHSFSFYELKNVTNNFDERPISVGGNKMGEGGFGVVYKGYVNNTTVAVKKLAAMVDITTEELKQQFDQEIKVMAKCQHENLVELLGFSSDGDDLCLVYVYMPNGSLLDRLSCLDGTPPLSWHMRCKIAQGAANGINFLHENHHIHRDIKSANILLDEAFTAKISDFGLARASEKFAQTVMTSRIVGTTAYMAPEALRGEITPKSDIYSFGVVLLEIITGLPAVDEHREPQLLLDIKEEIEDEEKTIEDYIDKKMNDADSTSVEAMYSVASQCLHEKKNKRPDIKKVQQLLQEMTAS
Put plainly: biochemical.
Settings: not given
`COc1cc2nc(C3CCOCC3)cn2cc1C(=O)Nc1cnn(C)c1C` [Example 194]: the IC50 was determined as 0.624 µM.
The same measure, in the same setting: the value for `CC(C)Oc1c(C(=O)Nc2cccc(C(F)F)n2)cn2cc(C34COC(C)(C3)C4)nc2c1F` [Example 217] was 0.0017 µM; that for `CCOc1nc(C(=O)Nc2cccc(F)c2Cl)cn2cc(C34COC(C)(C3)C4)nc12` [Example 485, N-(2-chloro-3-fluorophenyl)-8-ethoxy-2-(1-methyl-2-oxabicyclo[2.1.1]hexan-4-yl)imidazo[1,2-a]pyrazine-6-carboxamide] was 0.009 µM.
On the same count and under the same terms, the value for `CC(C)Oc1cc2nc([C@@]34CC[C@@](C)(C3)OC4)cn2cc1C(=O)Nc1cccn(C(F)F)c1=O` (single isomer, unassigned) [Example 624] was 0.0002 µM.
Still for that read-out and setting: the value for `CCOc1nc(C(=O)Nc2cc(F)cn(C)c2=O)cn2cc([C@H]3CCCOC3)nc12` (single isomer, unassigned) [Example 597] was 0.014 µM; that for `CC(C)Oc1cc2nc(C34COC(C)(C3)C4)cn2cc1C(=O)Nc1cccc2ccnn12` [Example 221] was 0.0006 µM.
The compound `CC12CC(c3cn4cc(C(=O)Nc5ccn(C(F)F)n5)c(OC5CCC5)cc4n3)(CO1)C2` [Example 523, 7-Cyclobutoxy-N-(1-(difluoromethyl)-1H-pyrazol-3-yl)-2-(1-methyl-2-oxabicyclo[2.1.1]hexan-4-yl)imidazo[1,2-a]pyridine-6-carboxamide] gave an IC50 of 0.0023 µM.
Same read-out and setting: the value for `CC(C)Oc1cc2nc(C34CCC(C3)OC4)cn2cc1C(=O)Nc1ccn(C)n1` (stereo not shown) [Example 415, 2-(2-Oxabicyclo[2.2.1]heptan-4-yl)-7-isopropoxy-N-(1-methyl-1H-pyrazol-3-yl)imidazo[1,2-a]pyridine-6-carboxamide] was 0.0085 µM; that for `CCn1cccc(NC(=O)c2cn3cc(C45CCC(C)(CC4)OC5)nc3cc2OC2CCC2)c1=O` [Example 420, 7-Cyclobutoxy-N-(1-ethyl-2-oxo-1,2-dihydropyridin-3-yl)-2-(1-methyl-2-oxabicyclo[2.2.2]octan-4-yl)imidazo[1,2-a]pyridine-6-carboxamide] was 0.0003 µM.
The same measure, in the same setting: the value for `CCO[C@H]1C[C@@H](Oc2cc3nc(C4CCOCC4)cn3cc2C(=O)Nc2cccc(C(F)F)n2)C1` [Example 436, N-(6-(difluoromethyl)pyridin-2-yl)-7-((1s,3s)-3-ethoxycyclobutoxy)-2-(tetrahydro-2H-pyran-4-yl)imidazo[1,2-a]pyridine-6-carboxamide] was 0.0008 µM; that for `CC12CC(c3cn4cc(C(=O)Nc5cccn(C(F)F)c5=O)c(OC5CCC5)cc4n3)(CO1)C2` [Example 442, 7-Cyclobutoxy-N-(1-(difluoromethyl)-2-oxo-1,2-dihydropyridin-3-yl)-2-(1-methyl-2-oxabicyclo[2.1.1]hexan-4-yl)imidazo[1,2-a]pyridine-6-carboxamide] was 0.0002 µM; that for `COc1cc2nc(C34COC(C)(C3)C4)cn2cc1C(=O)Nc1cccc(C(F)F)n1` [Example 293, N-(6-(difluoromethyl)pyridin-2-yl)-7-methoxy-2-(1-methyl-2-oxabicyclo[2.1.1]hexan-4-yl)imidazo[1,2-a]pyridine-6-carboxamide] was 0.0028 µM.
The same measure, in the same setting: the value for `CC(C)Oc1cc2nc(C34CCC(C)(C3)OC4)cn2cc1C(=O)Nc1cccc(C(F)F)c1` (stereo not shown) [Example 514, N-(3-(difluoromethyl)phenyl)-7-isopropoxy-2-(1-methyl-2-oxabicyclo[2.2.1]heptan-4-yl)imidazo[1,2-a]pyridine-6-carboxamide] was 0.0005 µM; that for `CC(C)Oc1nc2nc([C@]34CC[C@](C)(C3)OC4)cn2cc1C(=O)Nc1cccc(C(F)F)n1` (single isomer, unassigned) [Example 577] was 0.0002 µM; that for `CC(C)Oc1cc2nc(C34COC(C)(C3)C4)c(F)n2cc1C(=O)Nc1cccn(C(F)F)c1=O` [Example 326, N-(1-(difluoromethyl)-2-oxo-1,2-dihydropyridin-3-yl)-3-fluoro-7-isopropoxy-2-(1-methyl-2-oxabicyclo[2.1.1]hexan-4-yl)imidazo[1,2-a]pyridine-6-carboxamide] was 0.0019 µM.
In the case of `CC(C)Oc1cc2nc(C(F)(F)F)cn2cc1C(=O)Nc1cccc(C(F)F)n1` [Example 294, N-(6-(difluoromethyl)pyridin-2-yl)-7-isopropoxy-2-(trifluoromethyl)imidazo[1,2-a]pyridine-6-carboxamide], it took 0.0056 µM to reach half-maximal inhibition (IC50).
Turning to `CC(C)Oc1cc2nc([C@@]34CC[C@@H](C3)OC4)cn2cc1C(=O)Nc1cnn2cccnc12` (single isomer, unassigned) [Example 582], the IC50 was 0.0006 µM.
`CCOc1nc(C(=O)Nc2cccc(C(F)F)n2)cn2cc([C@@]34CC[C@@](C)(C3)OC4)nc12` (single isomer, unassigned) [Example 601] registered a half-maximal inhibitory concentration (IC50) of 0.0019 µM.
For `CCOc1nc2nc(C34CCC(C)(CC3)OC4)cn2cc1C(=O)Nc1ccn(C)n1` [Example 423, 7-Ethoxy-N-(1-methyl-1H-pyrazol-3-yl)-2-(1-methyl-2-oxabicyclo[2.2.2]octan-4-yl)imidazo[1,2-a]pyrimidine-6-carboxamide], the midpoint of inhibition, the IC50, lay at 0.0054 µM.
`COc1cc2nc(C3CCOCC3)cn2cc1C(=O)Nc1cccnc1OC(C)C` [Example 200] returned an IC50 of 0.0115 µM.
The compound `CC(C)Oc1cc2nc(C34CC(C#N)(C3)C4)cn2cc1C(=O)Nc1ccn(C)n1` [Example 404, 2-(3-Cyanobicyclo[1.1.1]pentan-1-yl)-7-isopropoxy-N-(1-methyl-1H-pyrazol-3-yl)imidazo[1,2-a]pyridine-6-carboxamide] registered an IC50 of 0.0077 µM.
The same measure, in the same setting: the value for `CC12CC(c3cn4cc(C(=O)Nc5cnn6cccnc56)c(OC5CC5)cc4n3)(CO1)C2` [Example 551] was 0.0019 µM; that for `O=C(Nc1cccc(C(F)F)n1)c1cn2cc(C3CC3)nc2cc1OC1CCOC1` (stereo not shown) [Example 468, 2-Cyclopropyl-N-(6-(difluoromethyl)pyridin-2-yl)-7-((tetrahydrofuran-3-yl)oxy)imidazo[1,2-a]pyridine-6-carboxamide] was 0.007 µM; that for `CC(C)COc1cc2nc(C3CC3)cn2cc1C(=O)Nc1cccc(C(F)F)n1` [Example 466, 2-Cyclopropyl-N-(6-(difluoromethyl)pyridin-2-yl)-7-isobutoxyimidazo[1,2-a]pyridine-6-carboxamide] was 0.0057 µM.
In the case of `CC(C)Oc1cc2nc([C@]34CC[C@](C)(C3)OC4)cn2cc1C(=O)Nc1ccn(C)n1` (single isomer, unassigned) [Example 607], the half-maximal inhibitory concentration (IC50) is 0.0031 µM.
`CC(C)Oc1nc2nc(C34COC(C)(C3)C4)cn2cc1C(=O)Nc1cccc2ccnn12` [Example 385, 7-Isopropoxy-2-(1-methyl-2-oxabicyclo[2.1.1]hexan-4-yl)-N-(pyrazolo[1,5-a]pyridin-7-yl)imidazo[1,2-a]pyrimidine-6-carboxamide] gave an IC50 of 0.0004 µM.

The experiment is the same for the next values; noted with them: IRAK4 Biochemical Assay (1 mM ATP, 2 h) IC50 (μM), 1 mM ATP, 2 h, 100 pM IRAK4.
As to `CC(C)Oc1cc2nc(C34CCC(C)(C3)OC4)cn2cc1C(=O)Nc1cc(F)n(C)n1` (stereo not shown) [Example 284, N-(5-fluoro-1-methyl-1H-pyrazol-3-yl)-7-isopropoxy-2-(1-methyl-2-oxabicyclo[2.2.1]heptan-4-yl)imidazo[1,2-a]pyridine-6-carboxamide trifluoroacetate], half-maximal inhibition (IC50) was put at 0.0056 µM. That is a single-digit nanomolar value.
With `COc1cccc(NC(=O)c2cn3cc([C@@]45COC[C@@H]4C5)nc3cc2OC)n1` [Example 30], half-maximal inhibition (IC50) required 0.0735 µM.
The same measure, in the same setting: the value for `CC(C)Oc1nc2nc(C34COC(C)(C3)C4)cn2cc1C(=O)Nc1cccc(C#N)c1F` [Example 353, N-(3-cyano-2-fluorophenyl)-7-isopropoxy-2-(1-methyl-2-oxabicyclo[2.1.1]hexan-4-yl)imidazo[1,2-a]pyrimidine-6-carboxamide trifluoroacetate] was 0.0025 µM.
Same read-out and setting: the value for `CC(C)Oc1cc2nc(C34COC(C)(C3)C4)cn2cc1C(=O)Nc1cc(F)n(C)n1` [Example 641, N-(5-fluoro-1-methyl-1H-pyrazol-3-yl)-7-isopropoxy-2-(1-methyl-2-oxabicyclo[2.1.1]hexan-4-yl)imidazo[1,2-a]pyridine-6-carboxamide trifluoroacetate] was 0.0062 µM; that for `Cc1cnc2c(NC(=O)c3cn4cc(C56COC(C)(C5)C6)nc4c(F)c3OC(C)C)cnn2c1` [Example 292, 8-Fluoro-7-isopropoxy-2-(1-methyl-2-oxabicyclo[2.1.1]hexan-4-yl)-N-(6-methylpyrazolo[1,5-a]pyrimidin-3-yl)imidazo[1,2-a]pyridine-6-carboxamide trifluoroacetate] was 0.0026 µM.
`CC(C)Oc1cc2nc(C34COC(CF)(C3)C4)cn2cc1C(=O)Nc1cccc(C(F)F)n1` [Example 289, N-(6-(difluoromethyl)pyridin-2-yl)-2-(1-(fluoromethyl)-2-oxabicyclo[2.1.1]hexan-4-yl)-7-isopropoxyimidazo[1,2-a]pyridine-6-carboxamide] came in with an IC50 of 0.0002 µM.
Turning to `CC(C)Oc1nc2nc(C34COC(C)(C3)C4)cn2cc1C(=O)Nc1ccc2c(n1)CCC2` [Example 366, N-(6,7-dihydro-5H-cyclopenta[b]pyridin-2-yl)-7-isopropoxy-2-(1-methyl-2-oxabicyclo[2.1.1]hexan-4-yl)imidazo[1,2-a]pyrimidine-6-carboxamide trifluoroacetate], half-maximal inhibition (IC50) was put at 0.0065 µM. This IC50 lies about 32-fold higher than the previous one.
In turn, `CC12CC(c3cn4cc(C(=O)Nc5cccc(C(F)F)n5)c(OC5CC5)nc4n3)(CO1)C2` [Example 312, 7-Cyclopropoxy-N-(6-(difluoromethyl)pyridin-2-yl)-2-(1-methyl-2-oxabicyclo[2.1.1]hexan-4-yl)imidazo[1,2-a]pyrimidine-6-carboxamide trifluoroacetate] had an IC50 of 0.0021 µM.
